Experimental data reported in PMC2811193, “Complementary Roles in Cancer Prevention: Protease Inhibitor Makes the Cancer Preventive Peptide Lunasin Bioavailable” (PLoS ONE, 2010).

Legend:
[1] = tested on: Pancreatin from porcine pancreas; assay: In vitro digestion of lunasin with pancreatin, with or without protease inhibitors; assay type: in vitro ADME; settings: pre-incubation with inhibitor 30 min at 25°C, pancreatin 1 h at 37°C, Western-Blot band intensity
Description: (§1) Figure 2 Soy-derived BBI and KTI protect synthetic lunasin from in vitro digestion. The upper, lighter bands are Coomassie Blue protein stains and the lower, darker bands are Western blots. (M) Markers, (1) Lunasin (600 ng) + pancreatin (600 ng) incubated for 0 h at 37°C, (2) Lunasin (600 ng) + pancreatin (600 ng) incubated for 1 h at 37°C, (3) Lunasin (600 ng) + BBI (18,000 ng, unboiled) + pancreatin (600 ng) incubated for 1 h at 37°C, (4). Lunasin (600 ng) + KTI (18,000 ng, unboiled) + pancreatin (600 ng) incubated for 1 h at 37°C, (5) Lunasin (600 ng) + BBI (18,000 ng, boiled) + pancreatin (600 ng) incubated for 1 h at 37°C, (6) Lunasin (600 ng)+KTI (18,000 ng, boiled) + pancreatin (600 ng) incubated for 1 h at 37°C, (7) BBI (unboiled), (8) KTI (unboiled).
(§2) In vitro digestion of lunasin was carried out following the method published in the United States Pharmacopeia. Synthetic lunasin (American Peptide Company, Inc. Sunnyvale, CA, USA) (5 µg) was incubated with the protease inhibitors BBI or KTI (Sigma, St. Louis, MO, USA) for 30 min at 25°C. Pancreatin from porcine pancreas (Sigma) was added (enzyme∶protein ratio of 1∶10) and solution was incubated at 37°C for 1 h. Tris-tricine sample buffer was added at the end of the reaction and immediately stopped by placing the tubes in a boiling water bath for 5 min. The digests were analyzed by SDS-PAGE and Western-Blot following the protocol previously described.

pancreatin = assay: as above; assay type: in vitro ADME, porcine; settings: pig, pancreatin from porcine pancreas; in the presence of boiled KTI; pre-incubation with inhibitor 30 min at 25°C; pancreatin 1 h at 37°C; Western-Blot band intensity; read-out: lunasin remaining intact after digestion with pancreatin
Description: as §1, §2

[2] = Bioavailability of 3H-lunasin after oral gavage with LES in CD-1 mice; assay type: in vivo
Description: Bioavailability studies in mice were done at North View Pacific Laboratories (Hercules, CA, USA), according with the Animal Care and Use Committee (ACUC) human guidelines. CD-1 mice (3-5 weeks old) were purchased from Jackson Laboratories (Bar Harbor, ME, USA) and conditioned on AIN76A diet for one week. Forty mice (20 male and 20 female) were fasted for 8 hrs before oral administration by gavage. Mice were separated into two groups, a control group receiving 240 mg of LES formulation and a treatment group receiving 240 mg of LES formulation plus 8 µCi of ^3H-lunasin (SibTech, Inc. Brookfield, CT, USA) in 0.1 mL of 10% sucrose solution. Four mice of each group were sacrificed at 3, 6, 9, 12 and 24 hrs after oral administration. The tissue samples were collected and prepared for scintillation counting by solubilizing in TS-2 tissue solubilizer (Research Products International Corp., Chicago, IL, USA) and addition of 15% benzoyl peroxide. Each sample was read in 5 ml of HionicFluor cocktail mix using a 1600TR liquid scintillation counter (Packard Inst. Meriden CT, USA).
Supplementary file pone.0008890.s001.tif: Figure S1 Recovery of ^3H-lunasin dose (expressed in percentage) in (-▴-) total, (-•-) tissues, and (-o-) gastrointestinal contents of mice at 3, 6, 9, 12, and 24 hours post-gavage of lunasin-enriched soy (LES). […]

MDA-MB-231 tumors = assay: In situ TUNEL assay for apoptosis in xenograft tumor sections; assay type: in vivo, athymic NCr-nu/nu mice; settings: lunasin 20 and 4 mg/kg (P = 0.0088, 0.0141 vs control), BBI 20 mg/kg i.p.
Description: In situ terminal deoxynucleotidyl transferase-mediated dUTP nick end labeling (TUNEL) assay was performed using ApopTag Detection Kit (Millipore, USA & Canada) and ran based on the manufacturer's protocol. Briefly, deparaffinized and rehydrated sections were pretreated with 20 µg/mL proteinase K for 15 min and incubated with terminal transferase and digoxigenin dUTP at 37°C for 1 h. After washing, sections were incubated with antidigoxigenin rhodamine (Millipore) and DAPI (Invitrogen), and slides were visualized by fluorescent microscopy (Axiophot 381). The apoptotic cells were calculated as percentage of positive cells over total number of cells counted in microscope at 400× magnification.

skin papilloma = settings: applied topically at 250 mg/week; SENCAR mice; cited from earlier work
Text: […] […] This is consistent with another observation that lunasin slows down epidermal cell proliferation in mouse skin in the absence and presence of DMBA using a ^2H2O label ...

[3] = tested on: DMBA-induced NIH3T3 cells; assay: Foci formation assay in DMBA-induced NIH3T3 cells; assay type: cell-based
Description: The foci formation assay was performed according to Reznikoff et al. NIH3T3 cells were obtained from American Type Culture Collection (ATCC) and cultured in RPMI 1640 medium supplemented with 10% fetal bovine serum (FBS) (Invitrogen, Carlsbad, CA, USA). Cells were plated at a density of 500 cells/well in 12-well plates, incubated overnight at 37°C and treated with lunasin or BBI for 4 hrs. Then, cells were treated with 1.5 µg/ml DMBA for 20 hrs. After washing with PBS, fresh medium was added. Peptides were added and medium was changed every week for 6 weeks. At the end of experiment, cells were washed with 0.9% NaCl, fixed with methanol, stained with Giemsa, and scored for transformed foci. The negative control was a set of cells receiving no DMBA, while the positive control consisted of cells induced by DMBA but without treatment.

lunasin remaining intact after digestion with pancreatin ([1]; in the presence of boiled BBI): 98%
lunasin remaining intact after digestion with pancreatin ([1]; in the presence of unboiled BBI): Approximately 93%
lunasin remaining intact after digestion with pancreatin ([1]; in the presence of unboiled KTI): ~97%
remaining at 1 h (pancreatin): 84%
total oral dose of lunasin absorbed ([2]; 3 hrs post-gavage, 3H-labelled synthetic lunasin (8 µCi) mixed with 240 mg LES, CD-1 mice fasted 8 hrs, scintillation counting of tissues): approximately 30%
crossing of the blood-brain barrier ([2]; oral gavage of 3H-lunasin with LES, CD-1 mice, 3H radioactivity in brain): able to cross the blood-brain barrier
Structure (SMILES): CC[C@H](C)[C@H](NC(=O)[C@H](CCCCN)NC(=O)[C@H](CCC(=O)O)NC(=O)[C@H](CCSC)NC(=O)[C@@H](NC(=O)[C@H](Cc1c[nH]cn1)NC(=O)[C@H](CCCCN)NC(=O)[C@H](CCC(=O)O)NC(=O)[C@H](CS)NC(=O)[C@@H]1CCCN1C(=O)[C@@H](NC(=O)[C@H](CC(C)C)NC(=O)[C@H](CC(N)=O)NC(=O)[C@@H](NC(=O)CNC(=O)[C@H](CCC(N)=O)NC(=O)[C@H](CC(C)C)NC(=O)[C@H](CCC(N)=O)NC(=O)[C@H](CCCCN)NC(=O)[C@H](CCCNC(=N)N)NC(=O)[C@H](CS)NC(=O)[C@H](CO)NC(=O)[C@H](CC(=O)O)NC(=O)[C@H](CCC(N)=O)NC(=O)[C@H](CCC(N)=O)NC(=O)[C@H](Cc1c[nH]cn1)NC(=O)[C@H](CCC(N)=O)NC(=O)[C@H](Cc1c[nH]c2ccccc12)NC(=O)[C@H](CCCCN)NC(=O)[C@@H](N)CO)C(C)C)[C@@H](C)O)[C@@H](C)CC)C(=O)N[C@@H](CCC(N)=O)C(=O)NCC(=O)N[C@@H](CCCNC(=N)N)C(=O)NCC(=O)N[C@@H](CC(=O)O)C(=O)N[C@@H](CC(=O)O)C(=O)N[C@@H](CC(=O)O)C(=O)N[C@@H](CC(=O)O)C(=O)N[C@@H](CC(=O)O)C(=O)N[C@@H](CC(=O)O)C(=O)N[C@@H](CC(=O)O)C(=O)N[C@@H](CC(=O)O)C(=O)N[C@@H](CC(=O)O)C(=O)O [lunasin]
TUNEL-positive apoptotic cells in tumors (MDA-MB-231 tumors): significantly increased apoptosis
suppression of skin papilloma formation compared with the control (skin papilloma): 70%
lunasin more effective than BBI in foci formation inhibition on an equimolar basis ([3]; 100 nM each): 18%
reduction of foci formation ([3]; 100 nM peptide, 1.5 µg/ml DMBA, 6 weeks, n = 6): 73%
suppression of foci formation ([3]; 1 µM lunasin extracted from the liver of LES-fed rats, n = 6): as effectively as an equimolar amount of synthetic lunasin
